Values belong to the compound of their own block, whether it stands above or below them.
How the values were obtained:
[1] = target: Cannabinoid receptor 1 (Homo sapiens, UniProt P21554); assay type: functional, cell-based
[2] = target: T1, Adenosine receptor A3 (Homo sapiens, UniProt P0DMS8)
T1 sequence (P0DMS8 whole entry): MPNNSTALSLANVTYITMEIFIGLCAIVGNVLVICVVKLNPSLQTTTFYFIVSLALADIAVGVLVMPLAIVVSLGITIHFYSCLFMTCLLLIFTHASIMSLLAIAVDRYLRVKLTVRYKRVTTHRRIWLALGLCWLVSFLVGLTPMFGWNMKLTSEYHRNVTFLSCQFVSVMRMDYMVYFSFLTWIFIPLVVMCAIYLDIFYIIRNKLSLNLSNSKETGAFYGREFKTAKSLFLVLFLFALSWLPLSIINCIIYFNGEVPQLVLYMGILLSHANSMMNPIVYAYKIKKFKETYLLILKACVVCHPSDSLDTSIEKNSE

[3] = target: T2, Muscarinic acetylcholine receptor M2 (Homo sapiens, UniProt P08172)
T2 sequence (P08172 whole entry): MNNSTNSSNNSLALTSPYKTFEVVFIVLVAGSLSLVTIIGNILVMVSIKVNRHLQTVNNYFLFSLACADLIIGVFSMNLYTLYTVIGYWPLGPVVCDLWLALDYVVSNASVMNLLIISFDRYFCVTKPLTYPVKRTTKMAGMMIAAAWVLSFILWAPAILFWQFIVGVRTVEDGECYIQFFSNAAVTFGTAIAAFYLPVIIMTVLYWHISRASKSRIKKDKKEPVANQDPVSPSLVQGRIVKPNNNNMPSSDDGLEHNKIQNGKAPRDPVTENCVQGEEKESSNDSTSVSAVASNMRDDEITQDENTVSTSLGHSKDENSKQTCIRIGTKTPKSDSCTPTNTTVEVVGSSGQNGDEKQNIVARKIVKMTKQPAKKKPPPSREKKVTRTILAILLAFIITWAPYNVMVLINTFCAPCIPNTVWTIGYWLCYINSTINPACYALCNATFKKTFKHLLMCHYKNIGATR

[4] = target: Acetylcholinesterase (Homo sapiens, UniProt P22303); assay type: functional
[5] = target: Prostaglandin G/H synthase 1 (Homo sapiens, UniProt P23219); assay type: functional
[6] = target: Sodium-dependent noradrenaline transporter (Homo sapiens, UniProt P23975)
[7] = target: 3',5'-cyclic-AMP phosphodiesterase 4A (Homo sapiens, UniProt P27815); assay type: functional
[8] = target: T3, Amine oxidase [flavin-containing] A (Homo sapiens, UniProt P21397); assay type: functional
T3 sequence (P21397 whole entry): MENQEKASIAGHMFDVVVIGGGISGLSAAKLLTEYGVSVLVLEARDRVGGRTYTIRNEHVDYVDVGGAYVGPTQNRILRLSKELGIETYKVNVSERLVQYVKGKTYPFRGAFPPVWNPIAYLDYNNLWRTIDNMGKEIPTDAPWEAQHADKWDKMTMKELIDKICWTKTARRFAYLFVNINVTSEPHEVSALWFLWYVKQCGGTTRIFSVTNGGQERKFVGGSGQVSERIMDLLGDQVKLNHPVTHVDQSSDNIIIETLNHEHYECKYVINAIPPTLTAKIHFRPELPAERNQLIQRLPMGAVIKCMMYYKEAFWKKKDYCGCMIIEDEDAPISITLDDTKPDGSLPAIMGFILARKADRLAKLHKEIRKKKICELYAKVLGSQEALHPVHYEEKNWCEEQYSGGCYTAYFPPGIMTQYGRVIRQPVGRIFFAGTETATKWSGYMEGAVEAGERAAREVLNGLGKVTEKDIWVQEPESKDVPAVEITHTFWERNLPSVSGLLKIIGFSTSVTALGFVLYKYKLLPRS

[9] = target: Prothrombin (Homo sapiens, UniProt P00734); assay type: functional
[10] = target: Mu-type opioid receptor (Homo sapiens, UniProt P35372)
[11] = target: D(1A) dopamine receptor (Homo sapiens, UniProt P21728)
[12] = target: T4, Alpha-1A adrenergic receptor (Homo sapiens, UniProt P35348); assay type: functional, cell-based
T4 sequence (P35348 whole entry): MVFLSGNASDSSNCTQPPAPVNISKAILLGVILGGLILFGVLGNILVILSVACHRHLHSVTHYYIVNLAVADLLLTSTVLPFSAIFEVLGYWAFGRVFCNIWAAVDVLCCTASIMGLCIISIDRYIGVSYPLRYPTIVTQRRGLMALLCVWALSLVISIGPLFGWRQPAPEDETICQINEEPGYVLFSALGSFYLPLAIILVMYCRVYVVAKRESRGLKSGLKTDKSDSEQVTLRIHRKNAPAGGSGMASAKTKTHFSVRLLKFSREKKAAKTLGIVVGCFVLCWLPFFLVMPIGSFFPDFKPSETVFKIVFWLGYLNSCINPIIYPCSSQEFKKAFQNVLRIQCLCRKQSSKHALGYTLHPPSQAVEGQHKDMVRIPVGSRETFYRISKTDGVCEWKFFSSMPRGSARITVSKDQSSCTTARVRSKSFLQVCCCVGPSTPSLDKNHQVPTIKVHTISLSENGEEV
Further: assay procedure not described here.

Chain of 3',5'-cyclic-AMP phosphodiesterase 4A (P27815 whole entry): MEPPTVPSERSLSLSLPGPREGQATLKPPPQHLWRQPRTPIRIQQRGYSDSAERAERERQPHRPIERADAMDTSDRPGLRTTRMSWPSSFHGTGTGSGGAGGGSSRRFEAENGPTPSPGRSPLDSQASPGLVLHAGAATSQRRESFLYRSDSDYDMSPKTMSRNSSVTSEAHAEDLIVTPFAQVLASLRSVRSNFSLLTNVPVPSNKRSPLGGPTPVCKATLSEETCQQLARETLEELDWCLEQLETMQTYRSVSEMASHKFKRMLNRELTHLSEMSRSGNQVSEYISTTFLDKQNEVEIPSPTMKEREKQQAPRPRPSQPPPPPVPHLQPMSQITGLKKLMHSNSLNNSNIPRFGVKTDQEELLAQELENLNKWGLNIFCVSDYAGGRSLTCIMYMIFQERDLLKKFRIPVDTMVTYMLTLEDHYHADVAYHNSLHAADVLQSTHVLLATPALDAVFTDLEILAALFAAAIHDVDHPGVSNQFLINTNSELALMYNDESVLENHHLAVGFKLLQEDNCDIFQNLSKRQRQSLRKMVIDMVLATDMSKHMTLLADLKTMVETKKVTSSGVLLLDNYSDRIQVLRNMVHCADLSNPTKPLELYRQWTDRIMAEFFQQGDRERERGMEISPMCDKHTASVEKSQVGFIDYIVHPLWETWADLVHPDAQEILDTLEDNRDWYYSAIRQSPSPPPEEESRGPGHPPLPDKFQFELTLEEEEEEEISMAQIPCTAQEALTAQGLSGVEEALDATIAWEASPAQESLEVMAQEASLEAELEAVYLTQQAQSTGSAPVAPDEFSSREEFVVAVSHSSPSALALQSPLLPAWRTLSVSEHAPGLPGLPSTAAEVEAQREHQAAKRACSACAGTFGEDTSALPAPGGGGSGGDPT
Chain of Acetylcholinesterase (P22303 whole entry): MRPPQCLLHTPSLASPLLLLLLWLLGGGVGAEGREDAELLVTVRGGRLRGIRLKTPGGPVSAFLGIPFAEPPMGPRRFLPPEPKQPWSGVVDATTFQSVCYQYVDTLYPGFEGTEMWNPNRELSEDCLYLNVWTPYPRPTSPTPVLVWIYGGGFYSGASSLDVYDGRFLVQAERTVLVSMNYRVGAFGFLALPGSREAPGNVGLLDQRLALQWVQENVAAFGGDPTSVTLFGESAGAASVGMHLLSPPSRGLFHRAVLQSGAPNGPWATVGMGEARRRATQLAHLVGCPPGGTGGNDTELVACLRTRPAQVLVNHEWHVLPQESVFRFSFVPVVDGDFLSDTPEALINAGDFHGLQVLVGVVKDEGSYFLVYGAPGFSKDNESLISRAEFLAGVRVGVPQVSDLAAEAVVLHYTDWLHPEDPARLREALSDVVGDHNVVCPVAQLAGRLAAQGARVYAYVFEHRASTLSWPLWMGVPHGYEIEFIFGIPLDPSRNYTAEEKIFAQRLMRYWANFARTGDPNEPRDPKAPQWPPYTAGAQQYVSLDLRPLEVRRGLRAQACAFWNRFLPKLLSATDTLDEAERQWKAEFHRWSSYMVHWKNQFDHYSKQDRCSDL
Chain of D(1A) dopamine receptor (P21728 whole entry): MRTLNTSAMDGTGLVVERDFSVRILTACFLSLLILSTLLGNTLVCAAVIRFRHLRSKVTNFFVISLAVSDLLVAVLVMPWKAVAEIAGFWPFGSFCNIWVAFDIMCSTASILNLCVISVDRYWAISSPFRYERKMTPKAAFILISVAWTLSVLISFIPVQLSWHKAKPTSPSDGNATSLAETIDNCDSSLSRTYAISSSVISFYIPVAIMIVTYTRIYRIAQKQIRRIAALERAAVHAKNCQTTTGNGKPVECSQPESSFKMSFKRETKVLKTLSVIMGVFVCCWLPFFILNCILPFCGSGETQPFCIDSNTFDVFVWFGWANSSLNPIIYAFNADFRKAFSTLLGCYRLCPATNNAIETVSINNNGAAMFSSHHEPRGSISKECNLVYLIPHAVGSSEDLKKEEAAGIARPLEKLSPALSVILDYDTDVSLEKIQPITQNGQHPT
Chain of Cannabinoid receptor 1 (P21554 whole entry): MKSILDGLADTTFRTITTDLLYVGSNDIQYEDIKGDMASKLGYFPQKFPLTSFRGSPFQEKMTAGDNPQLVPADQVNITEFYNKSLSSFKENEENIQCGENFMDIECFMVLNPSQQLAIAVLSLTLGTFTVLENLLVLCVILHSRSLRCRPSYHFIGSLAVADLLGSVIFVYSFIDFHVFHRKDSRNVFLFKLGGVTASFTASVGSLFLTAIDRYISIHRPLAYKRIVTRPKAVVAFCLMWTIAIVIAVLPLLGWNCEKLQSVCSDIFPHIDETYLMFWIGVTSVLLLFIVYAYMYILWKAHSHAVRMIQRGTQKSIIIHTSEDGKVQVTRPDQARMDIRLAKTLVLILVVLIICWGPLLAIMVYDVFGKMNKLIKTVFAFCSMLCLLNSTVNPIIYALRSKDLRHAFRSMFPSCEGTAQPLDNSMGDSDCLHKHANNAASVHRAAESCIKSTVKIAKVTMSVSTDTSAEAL
Chain of Sodium-dependent noradrenaline transporter (P23975 whole entry): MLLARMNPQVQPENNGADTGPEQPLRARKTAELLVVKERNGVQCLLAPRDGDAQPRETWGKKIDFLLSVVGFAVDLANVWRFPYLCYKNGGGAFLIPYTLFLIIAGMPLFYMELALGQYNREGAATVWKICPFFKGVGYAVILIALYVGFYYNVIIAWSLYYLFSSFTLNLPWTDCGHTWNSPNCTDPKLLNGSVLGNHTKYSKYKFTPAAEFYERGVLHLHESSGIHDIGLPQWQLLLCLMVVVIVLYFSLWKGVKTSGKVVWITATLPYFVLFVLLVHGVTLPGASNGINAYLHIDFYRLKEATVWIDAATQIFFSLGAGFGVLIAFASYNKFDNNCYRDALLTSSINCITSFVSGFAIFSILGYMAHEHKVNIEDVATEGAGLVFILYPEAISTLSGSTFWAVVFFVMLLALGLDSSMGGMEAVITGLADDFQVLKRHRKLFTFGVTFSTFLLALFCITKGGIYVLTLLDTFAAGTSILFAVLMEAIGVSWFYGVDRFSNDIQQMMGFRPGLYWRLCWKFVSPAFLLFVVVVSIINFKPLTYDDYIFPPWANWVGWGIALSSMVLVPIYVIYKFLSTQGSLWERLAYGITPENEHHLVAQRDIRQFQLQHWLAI
Chain of Mu-type opioid receptor (P35372 whole entry): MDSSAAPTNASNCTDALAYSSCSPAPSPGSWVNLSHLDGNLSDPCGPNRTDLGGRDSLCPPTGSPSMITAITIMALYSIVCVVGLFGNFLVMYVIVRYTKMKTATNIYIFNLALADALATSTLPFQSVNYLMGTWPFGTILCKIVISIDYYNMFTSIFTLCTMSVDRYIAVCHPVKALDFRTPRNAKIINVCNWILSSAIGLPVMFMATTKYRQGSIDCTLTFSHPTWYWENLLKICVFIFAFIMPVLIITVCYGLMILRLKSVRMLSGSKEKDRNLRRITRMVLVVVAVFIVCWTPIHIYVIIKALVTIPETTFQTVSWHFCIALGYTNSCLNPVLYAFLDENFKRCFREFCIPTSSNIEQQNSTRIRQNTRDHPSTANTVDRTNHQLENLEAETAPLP
Chain of Prostaglandin G/H synthase 1 (P23219 whole entry): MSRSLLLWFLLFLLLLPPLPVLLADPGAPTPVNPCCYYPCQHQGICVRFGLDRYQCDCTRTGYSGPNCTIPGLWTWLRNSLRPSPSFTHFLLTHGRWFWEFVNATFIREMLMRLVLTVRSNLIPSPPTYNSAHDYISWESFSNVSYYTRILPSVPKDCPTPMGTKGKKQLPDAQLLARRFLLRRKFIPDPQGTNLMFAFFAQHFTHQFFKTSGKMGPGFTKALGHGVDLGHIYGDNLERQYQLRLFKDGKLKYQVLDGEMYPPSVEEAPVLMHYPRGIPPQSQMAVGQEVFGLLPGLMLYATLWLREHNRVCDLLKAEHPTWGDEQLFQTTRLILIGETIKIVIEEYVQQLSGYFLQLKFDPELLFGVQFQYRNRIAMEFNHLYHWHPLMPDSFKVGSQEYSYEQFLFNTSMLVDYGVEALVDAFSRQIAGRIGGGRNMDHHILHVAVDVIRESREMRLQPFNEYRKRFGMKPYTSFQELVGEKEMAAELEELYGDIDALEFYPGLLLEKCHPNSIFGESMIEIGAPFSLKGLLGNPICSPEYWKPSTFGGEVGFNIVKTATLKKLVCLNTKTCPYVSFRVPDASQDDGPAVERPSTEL

Compound: C#C[C@]1(O)C=C[C@H]2[C@@H]3CCC4=CC(=O)CC[C@@H]4[C@H]3CC[C@@]21CC [GESTODENE]
- AC50 [3]: > 30 µM
- AC50 [4]: > 30 µM
- AC50 [5]: > 30 µM
- AC50 [6]: > 30 µM
- AC50 [7]: > 30 µM
- AC50 [8]: > 30 µM
- AC50 [9]: > 30 µM
- AC50 [10]: 14.9 µM
- AC50 [11]: > 30000 nM

Compound: CCOc1nc2cccc(C(=O)O)c2n1Cc1ccc(-c2ccccc2-c2nnn[nH]2)cc1
- AC50 [1]: > 30 µM
- AC50 [2]: > 30 µM

Compound: Nc1c(CC(=O)O)cccc1C(=O)c1ccc(Br)cc1 [BROMFENAC]
- AC50 [3]: > 30 µM
- AC50 [4]: > 30 µM
- AC50 [12]: > 30 µM
- AC50 [6]: > 30 µM
- AC50 [7]: > 30 µM
- AC50 [8]: > 30 µM
- AC50 [9]: > 30 µM
- AC50 [10]: > 30 µM
- AC50 [11]: > 30000 nM

Compound: CC(C)NC(=N)NC(=N)Nc1ccc(Cl)c(Cl)c1 [CHLORPROGUANIL]
- AC50 [3]: 29.7 µM
- AC50 [4]: > 30 µM
- AC50 [1]: > 30 µM
- AC50 [5]: > 30 µM
- AC50 [6]: 2.89 µM
- AC50 [7]: > 30 µM
- AC50 [8]: > 30 µM
- AC50 [9]: > 30 µM
- AC50 [10]: 11.2 µM
- AC50 [11]: 1770 nM

Compound: CC(CN1c2ccccc2Sc2ccccc21)N(C)C (stereo unspecified) [PROMETHAZINE]
- AC50 [3]: 0.03 µM
- AC50 [4]: > 30 µM
- AC50 [1]: > 30 µM
- AC50 [5]: > 30 µM
- AC50 [6]: 11.3 µM
- AC50 [2]: > 30 µM
- AC50 [7]: > 30 µM
- AC50 [8]: > 30 µM
- AC50 [9]: > 30 µM
- AC50 [11]: 1720 nM

Compound: CC[C@H](C)C(=O)O[C@H]1C[C@@H](C)C=C2C=C[C@H](C)[C@H](CC[C@@H]3C[C@@H](O)CC(=O)O3)[C@H]21 [LOVASTATIN]
- AC50 [1]: > 30 µM
- AC50 [2]: 28.5 µM

Compound: CC(C)C[C@H](NC(=O)[C@@H](O)[C@H](N)Cc1ccccc1)C(=O)O [UBENIMEX]
- AC50 [3]: > 30 µM
- AC50 [4]: > 30 µM
- AC50 [1]: > 30 µM
- AC50 [5]: > 30 µM
- AC50 [6]: > 30 µM
- AC50 [2]: > 30 µM
- AC50 [7]: > 30 µM
- AC50 [8]: > 30 µM
- AC50 [9]: > 30 µM
- AC50 [10]: > 30 µM
- AC50 [11]: > 30000 nM

Other lines, results leading:

- AC50 [1]: > 30 µM
- AC50 [2]: > 30 µM
Compound: CC1(C)S[C@@H]2[C@H](NC(=O)C(C(=O)O)c3ccccc3)C(=O)N2[C@H]1C(=O)O (stereo partly specified) [CARBENICILLIN]

- AC50 [2]: > 10 µM
Compound: CCCc1cc(=O)[nH]c(=S)[nH]1 [PROPYLTHIOURACIL]

- AC50 [1]: > 30 µM
- AC50 [2]: 18 µM
Compound: CNC[C@H](O)c1ccc(O)c(O)c1 [EPINEPHRINE]

- AC50 [1]: > 30 µM
- AC50 [2]: > 30 µM
Compound: Cn1cc(C(=O)[C@@H]2CCc3nc[nH]c3C2)c2ccccc21 [RAMOSETRON]

- AC50 [1]: > 30 µM
- AC50 [2]: 21.5 µM
Compound: Cc1nc(Nc2ncc(C(=O)Nc3c(C)cccc3Cl)s2)cc(N2CCN(CCO)CC2)n1 [DASATINIB]

- AC50 [1]: > 30 µM
- AC50 [2]: > 30 µM
Compound: CCCNC(=O)NS(=O)(=O)c1ccc(Cl)cc1 [CHLORPROPAMIDE]

- AC50 [1]: > 30 µM
- AC50 [2]: 11.4 µM
Compound: COc1cc(C(=O)NS(=O)(=O)c2ccccc2C)ccc1Cc1cn(C)c2ccc(NC(=O)OC3CCCC3)cc12 [ZAFIRLUKAST]

- AC50 [1]: > 30 µM
- AC50 [2]: > 30 µM
Compound: CN1Cc2c(N)cccc2C(c2ccccc2)C1 (stereo unspecified) [NOMIFENSINE]

- AC50 [2]: > 30 µM
Compound: CC=CC1=C(C(=O)O)N2C(=O)[C@@H](NC(=O)[C@H](N)c3ccc(O)cc3)[C@H]2SC1 [CEFPROZIL]

- AC50 [1]: > 30 µM
- AC50 [2]: > 30 µM
Compound: CC(=O)Nc1ccc(CC(=O)O)cc1 [ACTARIT]

Reference: ChEMBL document CHEMBL5291721, “A preclinical secondary pharmacology resource illuminates target-adverse drug reaction associations of marketed drugs” (Nat Commun, 2023)
